Source: article PMC10828660 (Heliyon, 2024)
One block for each compound: values may come before it.

Assays:
HepG2 = assay: MTT anti-proliferative assay against HepG2; type: cell-based; conditions: Homo sapiens, HepG2, read-out: HepG2 IC50
MCF-7 = assay: MTT anti-proliferative assay against MCF-7; type: cell-based; conditions: Homo sapiens, MCF7, read-out: MCF-7 IC50
VEGFR-2 = VEGFR-2 (Homo sapiens, UniProt P35968); assay: biochemical
Vero cells = assay: In vitro safety assay on normal Vero cells; type: cell-based
MCF-7 cells [1] = assay: Cell cycle analysis by flow cytometry; type: cell-based, Human
MCF-7 cells [2] = assay: Annexin-V/propidium iodide apoptosis analysis; type: cell-based, Human
MCF-7 cells [3] = assay: Wound healing; type: cell-based, Human

Sequence of VEGFR-2 (P35968 20-1356): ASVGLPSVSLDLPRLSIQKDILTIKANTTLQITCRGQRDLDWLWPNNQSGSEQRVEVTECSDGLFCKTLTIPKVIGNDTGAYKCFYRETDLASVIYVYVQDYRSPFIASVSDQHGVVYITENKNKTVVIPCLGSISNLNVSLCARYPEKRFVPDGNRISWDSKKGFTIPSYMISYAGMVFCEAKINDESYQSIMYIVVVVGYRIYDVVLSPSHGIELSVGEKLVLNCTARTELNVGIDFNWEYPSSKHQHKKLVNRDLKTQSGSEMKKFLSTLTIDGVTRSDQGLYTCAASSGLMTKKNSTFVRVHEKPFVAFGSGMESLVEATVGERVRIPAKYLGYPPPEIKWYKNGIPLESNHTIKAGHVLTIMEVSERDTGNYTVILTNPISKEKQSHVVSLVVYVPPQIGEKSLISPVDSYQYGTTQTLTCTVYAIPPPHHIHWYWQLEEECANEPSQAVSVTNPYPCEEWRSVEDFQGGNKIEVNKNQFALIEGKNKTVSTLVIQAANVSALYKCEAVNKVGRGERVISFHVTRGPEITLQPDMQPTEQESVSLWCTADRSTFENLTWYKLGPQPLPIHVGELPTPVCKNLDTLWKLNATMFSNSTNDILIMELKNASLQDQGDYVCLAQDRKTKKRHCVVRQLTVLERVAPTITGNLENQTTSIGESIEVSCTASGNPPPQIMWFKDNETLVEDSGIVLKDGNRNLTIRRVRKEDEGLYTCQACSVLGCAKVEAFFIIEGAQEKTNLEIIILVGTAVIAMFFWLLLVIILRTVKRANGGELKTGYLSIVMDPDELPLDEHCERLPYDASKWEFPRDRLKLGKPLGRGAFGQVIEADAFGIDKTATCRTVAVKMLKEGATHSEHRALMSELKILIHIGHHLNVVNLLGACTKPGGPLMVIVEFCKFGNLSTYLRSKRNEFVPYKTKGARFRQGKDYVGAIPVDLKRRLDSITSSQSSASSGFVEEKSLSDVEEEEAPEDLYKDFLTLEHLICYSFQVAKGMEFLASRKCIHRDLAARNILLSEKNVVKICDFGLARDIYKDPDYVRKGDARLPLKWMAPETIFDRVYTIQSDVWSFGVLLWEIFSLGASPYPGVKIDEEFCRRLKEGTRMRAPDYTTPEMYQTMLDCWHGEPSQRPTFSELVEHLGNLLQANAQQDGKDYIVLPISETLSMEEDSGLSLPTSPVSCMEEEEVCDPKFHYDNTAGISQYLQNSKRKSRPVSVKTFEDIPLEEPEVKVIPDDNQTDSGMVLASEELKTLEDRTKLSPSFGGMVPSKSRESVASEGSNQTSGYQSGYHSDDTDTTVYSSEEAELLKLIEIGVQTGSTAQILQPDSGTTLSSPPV

SMILES: O=C(CN1C(=O)SC(=Cc2ccc(Cl)cc2Cl)C1=O)Nc1ccc(C(=O)NNC(=O)c2ccccc2)cc1 [Compound 22, N-(4-(2-benzoylhydrazine-1-carbonyl)phenyl)-2-(5-(2,4-dichlorobenzylidene)-2,4-dioxothiazolidin-3-yl)acetamide]
IC50 (HepG2): 2040 ± 60 nM
IC50 (MCF-7): 1210 ± 40 nM
IC50 (VEGFR-2): 79 ± 3 nM
Selectivity index HepG2 (Vero cells; IC50 Vero divided by IC50 HepG2): 1.95
Selectivity index MCF-7 (Vero cells; IC50 Vero divided by IC50 MCF-7): 3.28
Cell cycle arrest phase (MCF-7 cells [1]; MCF-7, 1.21 μM): S phase
Cell cycle distribution G2/M (MCF-7 cells [1]; MCF-7, 1.21 μM for 72 h, control 16.35): 13.77%
Cell cycle distribution S (MCF-7 cells [1]; MCF-7, 1.21 μM for 72 h, control 24.61): 33.84%
Cell cycle distribution G0-G1 (MCF-7 cells [1]; MCF-7, 1.21 μM for 72 h, control 59.04): 52.39%
Increase of early apoptosis compared to untreated cells (MCF-7 cells [2]; MCF-7, 1.21 μM): about 76 times
Increase of late apoptosis compared to untreated cells (MCF-7 cells [2]; MCF-7, 1.21 μM): about 90 fold
Apoptosis Late (Right Top) (MCF-7 cells [2]; MCF-7, 1.21 μM, 72 h, control 0.15): 13.53%
Apoptosis Early (Right Bottom) (MCF-7 cells [2]; MCF-7, 1.21 μM, 72 h, control 0.29): 22.15%
Necrosis (Left Top) (MCF-7 cells [2]; MCF-7, 72 h treatment, control 2.22): 5.34
RM (MCF-7 cells [3]; MCF-7, 48 h, untreated 16.58): 6.16 um
Wound closure (MCF-7 cells [3]; MCF-7, 48 h, untreated 81.62): 30.20 % um^2
Area difference (MCF-7 cells [3]; MCF-7, 48 h, untreated 795.83): 295.83%
Reduction in scratch width (MCF-7 cells [3]; MCF-7, after 48 h, untreated 81.62 %): 30.20%
Scratch width at 48 h (MCF-7 cells [3]; MCF-7, untreated 178.24): 682.93
Scratch area at 48 h (MCF-7 cells [3]; MCF-7, untreated 179.17): 683.83
Scratch width at 24 h (MCF-7 cells [3]; MCF-7, untreated 644.43): 904.16
Scratch area at 24 h (MCF-7 cells [3]; MCF-7, untreated 645.50): 905.17
Scratch width at 0 h (MCF-7 cells [3]; MCF-7, untreated 974.11): 978.78
Scratch area at 0 h (MCF-7 cells [3]; MCF-7, untreated 975.00): 979.67

SMILES: O=C(CN1C(=O)SC(=Cc2ccccc2Cl)C1=O)Nc1ccc(C(=O)NNC(=O)c2ccccc2O)cc1 [Compound 20, 2-(5-(2-Chlorobenzylidene)-2,4-dioxothiazolidin-3-yl)-N-(4-(2-(2-hydroxybenzoyl) hydrazine-1-carbonyl)phenyl)acetamide]
IC50 (HepG2): 1140 ± 30 nM
IC50 (MCF-7): 660 ± 30 nM
IC50 (VEGFR-2): 210 ± 9 nM

SMILES: O=C(CN1C(=O)SC(=Cc2ccc(Cl)cc2Cl)C1=O)Nc1ccc(C(=O)Nc2cccc(Cl)c2)cc1 [Compound 21, N-(3-chlorophenyl)-4-(2-(5-(2,4-dichlorobenzylidene)-2,4-dioxothiazolidin-3-yl)acetamido)benzamide]
IC50 (HepG2): 840 ± 10 nM
IC50 (MCF-7): 680 ± 10 nM
IC50 (VEGFR-2): 1660 ± 70 nM

SMILES: O=C(CN1C(=O)SC(=Cc2ccccc2Cl)C1=O)Nc1ccc(C(=O)NNc2ccccc2)cc1 [Compound 18, 2-(5-(2-Chlorobenzylidene)-2,4-dioxothiazolidin-3-yl)-N-(4-(2-phenylhydrazine-1-carbonyl)phenyl)acetamide]
IC50 (HepG2): 4700 ± 100 nM
IC50 (MCF-7): 1760 ± 20 nM
IC50 (VEGFR-2): 2660 ± 112 nM

More lines, in order of falling IC50 (HepG2), values ahead:

IC50 (HepG2): 3060 ± 20 nM
IC50 (MCF-7): 2290 ± 190 nM
IC50 (VEGFR-2): 323 ± 14 nM
SMILES: O=C(CN1C(=O)SC(=Cc2ccccc2Cl)C1=O)Nc1ccc(C(=O)NNC(=O)c2cccc(Cl)c2)cc1 [Compound 19, N-(4-(2-(3-chlorobenzoyl)hydrazine-1-carbonyl)phenyl)-2-(5-(2-chlorobenzylidene)-2,4dioxothiazolidin-3-yl)acetamide]

IC50 (HepG2): 1180 ± 10 nM
IC50 (MCF-7): 950 ± 10 nM
IC50 (VEGFR-2): 328 ± 14 nM
SMILES: O=C(CN1C(=O)SC(=Cc2ccc(Cl)cc2Cl)C1=O)Nc1ccc(C(=O)NNC(=O)c2cccc(Cl)c2)cc1 [Compound 23, N-(4-(2-(3-chlorobenzoyl)hydrazine-1-carbonyl)phenyl)-2-(5-(2,4-dichlorobenzylidene)-2,4-dioxothiazolidin-3-yl)acetamide]

IC50 (HepG2): 600 ± 20 nM
IC50 (MCF-7): 650 ± 10 nM
IC50 (VEGFR-2): 203 ± 9 nM
SMILES: O=C(CN1C(=O)SC(=Cc2ccc(Cl)cc2Cl)C1=O)Nc1ccc(C(=O)NNC(=O)c2ccccc2O)cc1 [Compound 24, 2-(5-(2,4-Dichlorobenzylidene)-2,4-dioxothiazolidin-3-yl)-N-(4-(2-(2-hydroxybenzoyl) hydrazine-1-carbonyl)phenyl)acetamide]
